pEC50: −log10 of the molar value.
Assays:
[1] = tested on: HBV replication in HepAD38 cells; test: Anti-HBV replication assay in HepAD38 cells (QPCR of extracellular HBV DNA); format: cell-based, HBV (genotype D, serotype ayw); conditions: Hepatitis B virus, 168 h, 7 days incubation, extracellular HBV DNA by QPCR, read-out: Anti-HBV EC50
Outline: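 Steps: seed HepAD38 overnight without tetracycline; refresh medium and add 1 log10 serial dilutions ([…]); incubate 7 days at 37 °C; quantify supernatant HBV DNA by QPCR; derive EC50 from a 4-parameter dose-response fit.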

[2] = In vitro cytotoxicity assay (MTT cell viability) in HepG2 cells; format: cell-based, human; conditions: human
Outline: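 CC50 values reflect loss of HepG2 viability after a 7-day exposure at 37 °C, 5% CO2. After 3-4 h with MTT, solubilized formazan was quantified at 492 nm relative to vehicle wells.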

**Q.** With `Cc1cc(NC(=O)c2c(C)c(C(=O)C(=O)N[C@@H](C(N)=O)C(C)C)n(C)c2C)ccc1F` [Example 105, (R)-5-(2-((1-amino-3-methyl-1-oxobutan-2-yl)amino)-2-oxoacetyl)-N-(4-fluoro-3-methylphenyl)-1,2,4-trimethyl-1H-pyrrole-3-carboxamide] as the compound, how does the pEC50 [1] read?
**A.** > 7.30

**Q.** What about the CC50 at 7 days [2] of the same compound?
**A.** 5 to 30 µM

**Q.** With `O=C(NC1(CO)CC(F)(F)C1)C(=O)c1c(Cl)c(C(=O)Nc2ccc(F)c(Cl)c2)c2n1CCC2` [Example 580, 6-chloro-N-(3-chloro-4-fluorophenyl)-5-(2-((3,3-difluoro-1-(hydroxymethyl)cyclobutyl)amino)-2-oxoacetyl)-2,3-dihydro-1H-pyrrolizine-7-carboxamide] as the compound, how does the pEC50 [1] read?
**A.** > 7.30

**Q.** And the CC50 at 7 days [2]?
**A.** 5 to 30 µM

**Q.** Which results are given for `Cc1cc(NC(=O)c2c(C)c(C(=O)C(=O)NC3CCc4nc(N)sc4C3)n(C)c2C)cnc1F` (stereo in doubt) [Example 138, (S)-5-(2-((2-amino-4,5,6,7-tetrahydrobenzo[d]thiazol-6-yl)amino)-2-oxoacetyl)-N-(6-fluoro-5-methylpyridin-3-yl)-1,2,4-trimethyl-1H-pyrrole-3-carboxamide]?
**A.** pEC50 [1]: > 7.30; CC50 at 7 days [2]: 0.5 to 4.99 µM

**Q.** What does the source list for `Cc1cc(NC(=O)c2cc(C(=O)C(=O)NC3(C)CC(F)(F)C3)n3c2CCCC3)ccc1F` [Example 404, 3-(2-((3,3-difluoro-1-methylcyclobutyl)amino)-2-oxoacetyl)-N-(4-fluoro-3-methylphenyl)-5,6,7,8-tetrahydroindolizine-1-carboxamide]?
**A.** pEC50 [1]: 6.30 to 7.30; CC50 at 7 days [2]: > 30 µM

**Q.** With `Cc1cc(NC(=O)c2c(C)c(C(=O)C(=O)NC3CCC(F)(F)CC3)n(C)c2C)ccc1F` [Example 250, 5-(2-((4,4-difluorocyclohexyl)amino)-2-oxoacetyl)-N-(4-fluoro-3-methylphenyl)-1,2,4-trimethyl-1H-pyrrole-3-carboxamide] as the compound, how does the pEC50 [1] read?
**A.** > 7.30

**Q.** And the CC50 at 7 days [2]?
**A.** 5 to 30 µM

**Q.** With `CC(=O)N[C@H]1C[C@H](NC(=O)C(=O)c2c(C)c(C(=O)Nc3ccc(F)c(C)c3)c(C)n2C)C1` [Example 670, 5-(2-(((1r,3r)-3-acetamidocyclobutyl)amino)-2-oxoacetyl)-N-(4-fluoro-3-methylphenyl)-1,2,4-trimethyl-1H-pyrrole-3-carboxamide] as the compound, how does the pEC50 [1] read?
**A.** > 7.30

**Q.** What about the CC50 at 7 days [2] of the same compound?
**A.** > 30 µM

**Q.** With `Cc1cc(NC(=O)c2c(C)c(C(=O)C(=O)N[C@H]3CC[C@H](O)CC3)n(CCF)c2C)ccc1F` [Example 198, N-(4-fluoro-3-methylphenyl)-1-(2-fluoroethyl)-5-(2-(((1r,4r)-4-hydroxycyclohexyl)amino)-2-oxoacetyl)-2,4-dimethyl-1H-pyrrole-3-carboxamide] as the compound, how does the pEC50 [1] read?
**A.** 6.30 to 7.30

**Q.** What about the CC50 at 7 days [2] of the same compound?
**A.** > 30 µM

**Q.** With `CNC(=O)C1(NC(=O)C(=O)c2c(C)c(C(=O)Nc3ccc(F)c(C)c3)c(C)n2C)CC(F)(F)C1` [Example 104, 5-(2-((3,3-difluoro-1-(methylcarbamoyl)cyclobutyl)amino)-2-oxoacetyl)-N-(4-fluoro-3-methylphenyl)-1,2,4-trimethyl-1H-pyrrole-3-carboxamide] as the compound, how does the pEC50 [1] read?
**A.** > 7.30

**Q.** And the CC50 at 7 days [2]?
**A.** > 30 µM

**Q.** With `Cc1noc([C@@H](C)NC(=O)C(=O)c2c(C)c(C(=O)Nc3ccc(F)c(F)c3)c3n2CCCC3)n1` [Example 454, (R)-N-(3,4-difluorophenyl)-2-methyl-3-(2-((1-(3-methyl-1,2,4-oxadiazol-5-yl)ethyl)amino)-2-oxoacetyl) 5,6,7,8-tetrahydroindolizine-1-carboxamide] as the compound, how does the pEC50 [1] read?
**A.** 6.30 to 7.30

**Q.** And the CC50 at 7 days [2]?
**A.** > 30 µM

**Q.** With `Cc1cc(NC(=O)c2c(C)c(C(=O)C(=O)N[C@H](C)C(F)(F)F)n(C)c2C)ccc1F` [Example 289, (R)-N-(4-fluoro-3-methylphenyl)-1,2,4-trimethyl-5-(2-oxo-2-((1,1,1-trifluoropropan-2-yl)amino)acetyl)-1H-pyrrole-3-carboxamide] as the compound, how does the pEC50 [1] read?
**A.** > 7.30

**Q.** What about the CC50 at 7 days [2] of the same compound?
**A.** 5 to 30 µM

**Q.** What does the source list for `Cc1c(C(=O)Nc2cc(F)c(F)c(F)c2)c(C)n(C)c1C(=O)C(=O)Nc1ccccn1` [Example 318, 1,2,4-trimethyl-5-(2-oxo-2-(pyridin-2-ylamino)acetyl)-N-(3,4,5-trifluorophenyl)-1H-pyrrole-3-carboxamide]?
**A.** pEC50 [1]: 6.30 to 7.30; CC50 at 7 days [2]: > 30 µM

**Q.** Which results are given for `CCCOC1(CNC(=O)C(=O)c2c(C)c(C(=O)Nc3ccc(F)c(C)c3)c(C)n2C)CCCCC1` [Example 336, N-(4-fluoro-3-methylphenyl)-1,2,4-trimethyl-5-(2-oxo-2-(((1-propoxycyclohexyl)methyl)amino)acetyl)-1H-pyrrole-3-carboxamide]?
**A.** pEC50 [1]: > 7.30; CC50 at 7 days [2]: 5 to 30 µM

**Q.** What does the source list for `Cc1cc(NC(=O)c2c(C)c(C(=O)C(=O)NC3(C)CC=CCC3)n(C)c2C)ccc1F` (stereo not drawn) [Example 694, N-(4-fluoro-3-methylphenyl)-1,2,4-trimethyl-5-(2-((1-methylcyclohex-3-en-1-yl)amino)-2-oxoacetyl)-1H-pyrrole-3-carboxamide]?
**A.** pEC50 [1]: > 7.30; CC50 at 7 days [2]: > 30 µM

**Q.** What does the source list for `Cc1c(C(=O)Nc2ccnc(Cl)c2)c(C)n(C)c1C(=O)C(=O)NC(C)(C)CO` [Example 190, N-(2-chloropyridin-4-yl)-5-(2-((1-hydroxy-2-methylpropan-2-yl)amino)-2-oxoacetyl)-1,2,4-trimethyl-1H-pyrrole-3-carboxamide]?
**A.** pEC50 [1]: > 7.30; CC50 at 7 days [2]: > 30 µM

**Q.** Which results are given for `Cc1cc(NC(=O)c2c(C)c(C(=O)C(=O)NC3CCN(c4cccs4)CC3)n(C)c2C)ccc1F` [Example 655]?
**A.** pEC50 [1]: 6.30 to 7.30; CC50 at 7 days [2]: > 30 µM

**Q.** With `Cc1cc(NC(=O)c2c(C)c(C(=O)C(=O)N[C@H]3CC[C@](C)(O)CC3)n3c2CCCC3)ccc1F` [Example 740, N-(4-fluoro-3-methylphenyl)-3-(2-(((1r,4r)-4-hydroxy-4-methylcyclohexyl)amino)-2-oxoacetyl)-2-methyl-5,6,7,8-tetrahydroindolizine-1-carboxamide] as the compound, how does the pEC50 [1] read?
**A.** > 7.30

**Q.** And the CC50 at 7 days [2]?
**A.** > 30 µM

**Q.** With `Cc1cc(NC(=O)c2cc(C(=O)C(=O)NC(C)(C)C(N)=O)n3c2CCCC3)ccc1F` [Example 406] as the compound, how does the pEC50 [1] read?
**A.** 6.00 to 6.30

**Q.** And the CC50 at 7 days [2]?
**A.** > 30 µM

**Q.** What does the source list for `Cc1cc(NC(=O)c2cc(C(=O)C(=O)NC(C)C)n3c2CCCC3)ccc1F` [Example 412, N-(4-fluoro-3-methylphenyl)-3-(2-(isopropylamino)-2-oxoacetyl)-5,6,7,8-tetrahydroindolizine-1-carboxamide]?
**A.** pEC50 [1]: 6.30 to 7.30; CC50 at 7 days [2]: 5 to 30 µM

**Q.** What does the source list for `Cc1cc(NC(=O)c2c(C)c(C(=O)C(=O)N[C@@H]3CC[C@@H](O)C3)n(C)c2C)ccc1F` [Example 127, N-(4-fluoro-3-methylphenyl)-5-(2-(((1R,3R)-3-hydroxycyclopentyl)amino)-2-oxoacetyl)-1,2,4-trimethyl-1H-pyrrole-3-carboxamide]?
**A.** pEC50 [1]: > 7.30; CC50 at 7 days [2]: > 30 µM

**Q.** With `Cc1cc(NC(=O)c2c(C)c(C(=O)C(=O)NC(C)(C)CO)n(CCO)c2C)ccc1F` [Example 50, N-(4-fluoro-3-methylphenyl)-5-(2-((1-hydroxy-2-methylpropan-2-yl)amino)-2-oxoacetyl)-1-(2-hydroxyethyl)-2,4-dimethyl-1H-pyrrole-3-carboxamide] as the compound, how does the pEC50 [1] read?
**A.** < 6.00

**Q.** What about the CC50 at 7 days [2] of the same compound?
**A.** > 30 µM

**Q.** Which results are given for `Cc1cc(NC(=O)c2c(C)c(C(=O)C(=O)NC(C)(C)CO)n3c2CCCC3)ccc1F` [Example 436, N-(4-fluoro-3-methylphenyl)-3-(2-((1-hydroxy-2-methylpropan-2-yl)amino)-2-oxoacetyl)-2-methyl-5,6,7,8-tetrahydroindolizine-1-carboxamide]?
**A.** pEC50 [1]: 6.30 to 7.30; CC50 at 7 days [2]: > 30 µM

**Q.** Which results are given for `Cc1cc(NC(=O)c2c(C)c(C(=O)C(=O)N[C@@H](CO)C(N)=O)n(C)c2C)ccc1F` [Example 41, (S)-5-(2-((1-amino-3-hydroxy-1-oxopropan-2-yl)amino)-2-oxoacetyl)-N-(4-fluoro-3-methylphenyl)-1,2,4-trimethyl-1H-pyrrole-3-carboxamide]?
**A.** pEC50 [1]: > 7.30; CC50 at 7 days [2]: 0.5 to 4.99 µM

**Q.** With `Cc1csc(NC(=O)C(=O)c2c(C)c(C(=O)Nc3cc(F)c(F)c(F)c3)c(C)n2C)n1` [Example 323, 1,2,4-trimethyl-5-(2-((4-methylthiazol-2-yl)amino)-2-oxoacetyl)-N-(3,4,5-trifluorophenyl)-1H-pyrrole-3-carboxamide] as the compound, how does the pEC50 [1] read?
**A.** > 7.30

**Q.** What about the CC50 at 7 days [2] of the same compound?
**A.** 5 to 30 µM

**Q.** Which results are given for `Cc1cc(NC(=O)c2c(C)c(C(=O)C(=O)N[C@]3(C)CC[C@H](O)CC3)n3c2CCCC3)ccc1F` [Example 737, N-(4-fluoro-3-methylphenyl)-3-(2-(((1s,4s)-4-hydroxy-1-methylcyclohexyl)amino)-2-oxoacetyl)-2-methyl-5,6,7,8-tetrahydroindolizine-1-carboxamide]?
**A.** pEC50 [1]: > 7.30; CC50 at 7 days [2]: > 30 µM

**Q.** With `Cc1c(C(=O)Nc2ccnc(Cl)c2)c(C)n(C)c1C(=O)C(=O)NC1C2CC3CC1CC(O)(C3)C2` [Example 209, N-(2-chloropyridin-4-yl)-5-(2-(((1R,2s,3S,5s,7s)-5-hydroxyadamantan-2-yl)amino)-2-oxoacetyl)-1,2,4-trimethyl-1H-pyrrole-3-carboxamide] as the compound, how does the pEC50 [1] read?
**A.** > 7.30

**Q.** What about the CC50 at 7 days [2] of the same compound?
**A.** > 30 µM

**Q.** With `CCN(CC)CCNC(=O)C(=O)c1c(C)c(C(=O)Nc2ccc(F)c(C)c2)c(C)n1C` [Example 329, 5-(2-((2-(diethylamino)ethyl)amino)-2-oxoacetyl)-N-(4-fluoro-3-methylphenyl)-1,2,4-trimethyl-1H-pyrrole-3-carboxamide] as the compound, how does the pEC50 [1] read?
**A.** 6.00 to 6.30

**Q.** And the CC50 at 7 days [2]?
**A.** > 30 µM

**Q.** What does the source list for `Cc1nnc(C(C)NC(=O)C(=O)c2c(C)c(C(=O)Nc3ccc(F)c(C)c3)c(C)n2C)o1` (stereo not drawn) [Example 181, N-(4-fluoro-3-methylphenyl)-1,2,4-trimethyl-5-(2-((1-(5-methyl-1,3,4-oxadiazol-2-yl)ethyl)amino)-2-oxoacetyl)-1H-pyrrole-3-carboxamide]?
**A.** pEC50 [1]: > 7.30; CC50 at 7 days [2]: > 30 µM
